Laboratory results published in the supplement of paper PMC12819154, “High-throughput peptide-centric local stability assay extends protein–ligand identification to membrane proteins, tissues and bacteria” (Nature Structural & Molecular Biology, 2025).

Key:
Test in all cases: pEC50 of peptide local stability change
UniProt P00959 = details: peptide sequence: LKENGFIK; direction: stabilized; replicate design: treated separately
Experimental: (§1)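 Dose-response HT-PELSA: desalted E. coli lysate treated separately per replicate with ATP (10 uM to 10 mM, 7 doses) for 30 min at 25 C, then a 4 min trypsin pulse at 22 C. Peptide ratio vs control was fitted with a 4-parameter log-logistic model (R2 > 0.9 in at least 3 replicates, CV of pEC50 <= 0.25); value is the mean pEC50 across replicates for stabilized or destabilized peptides.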

UniProt P04993 = details: peptide sequence: VAAAVALTR; direction: stabilized; replicate design: treated separately
Experimental: as §1

UniProt P05707 = details: peptide sequence: VGSKHNSGYSAAK; direction: stabilized; replicate design: treated separately
Experimental: as §1

UniProt P08192 = details: peptide sequence: ASGLEVSENAIR; direction: stabilized; replicate design: treated separately
Experimental: as §1

UniProt P08200 = details: peptide sequence: VAIKGPLTTPVGGGIR; direction: stabilized; replicate design: treated separately
Experimental: as §1

UniProt P0ACL0 = details: peptide sequence: HVMLVVDHSK; direction: stabilized; replicate design: treated separately
Experimental: as §1

UniProt P0AES0 = details: peptide sequence: GDESLVIKK; direction: stabilized; replicate design: treated separately
Experimental: as §1

UniProt P11454 = details: peptide sequence: ALPLPELK; direction: stabilized; replicate design: treated separately
Experimental: as §1

UniProt P12282 = details: peptide sequence: NQLNAGCFAAK; direction: stabilized; replicate design: treated separately
Experimental: as §1

UniProt P13000 = details: peptide sequence: TVASCALLQAAK; direction: stabilized; replicate design: treated separately
Experimental: as §1

UniProt P13458 = details: peptide sequence: LESTFAVK; direction: stabilized; replicate design: treated separately
Experimental: as §1

UniProt P14081 = details: peptide sequence: LFITAATEGR; direction: stabilized; replicate design: treated separately
Experimental: as §1

UniProt P14375 = details: peptide sequence: ELENAVER; direction: stabilized; replicate design: treated separately
Experimental: as §1

UniProt P18392 = details: peptide sequence: EHIFEPFVR; direction: stabilized; replicate design: treated separately
Experimental: as §1

UniProt P20083 = details: peptide sequence: RDGQVYNIAFENGEK; direction: stabilized; replicate design: treated separately
Experimental: as §1

UniProt P21507 = details: peptide sequence: DVLGSAPTGTGK; direction: stabilized; replicate design: treated separately
Experimental: as §1

UniProt P22188 = details: peptide sequence: LWCVFGCGGDRDK; direction: stabilized; replicate design: treated separately
Experimental: as §1

UniProt P23331 = details: peptide sequence: AEHEQQAIHCVLVDECQFLTR; direction: stabilized; replicate design: treated separately
Experimental: as §1

UniProt P24193 = details: peptide sequence: DAALIGEVVERK; direction: stabilized; replicate design: treated separately
Experimental: as §1

UniProt P25741 = details: peptide sequence: GKDAFAEVK; direction: stabilized; replicate design: treated separately
Experimental: as §1

UniProt P25742 = details: peptide sequence: GCETKPITGLAGK; direction: stabilized; replicate design: treated separately
Experimental: as §1

UniProt P30844 = details: peptide sequence: AGQSFSSGNYQHVK; direction: stabilized; replicate design: treated separately
Experimental: as §1

UniProt P31548 = details: peptide sequence: LPGELSGGQR; direction: stabilized; replicate design: treated separately
Experimental: as §1

UniProt P33919 = details: peptide sequence: VLVLAHVK; direction: stabilized; replicate design: treated separately
Experimental: as §1

UniProt P36566 = details: peptide sequence: TLSPDYPR; direction: stabilized; replicate design: treated separately
Experimental: as §1

UniProt P37624 = details: peptide sequence: VLASGTPQELVEKR; direction: stabilized; replicate design: treated separately
Experimental: as §1

UniProt P37744 = details: peptide sequence: LSVAMMGR; direction: stabilized; replicate design: treated separately
Experimental: as §1

UniProt P39359 = details: peptide sequence: EVADFLINK; direction: stabilized; replicate design: treated separately
Experimental: as §1

UniProt P39410 = details: peptide sequence: HIAQEMPEK; direction: stabilized; replicate design: treated separately
Experimental: as §1

UniProt P75736 = details: peptide sequence: QQAAAIMR; direction: stabilized; replicate design: treated separately
Experimental: as §1

UniProt P75828 = details: peptide sequence: YLDIINR; direction: stabilized; replicate design: treated separately
Experimental: as §1

UniProt P21507, sequence (P21507 whole entry): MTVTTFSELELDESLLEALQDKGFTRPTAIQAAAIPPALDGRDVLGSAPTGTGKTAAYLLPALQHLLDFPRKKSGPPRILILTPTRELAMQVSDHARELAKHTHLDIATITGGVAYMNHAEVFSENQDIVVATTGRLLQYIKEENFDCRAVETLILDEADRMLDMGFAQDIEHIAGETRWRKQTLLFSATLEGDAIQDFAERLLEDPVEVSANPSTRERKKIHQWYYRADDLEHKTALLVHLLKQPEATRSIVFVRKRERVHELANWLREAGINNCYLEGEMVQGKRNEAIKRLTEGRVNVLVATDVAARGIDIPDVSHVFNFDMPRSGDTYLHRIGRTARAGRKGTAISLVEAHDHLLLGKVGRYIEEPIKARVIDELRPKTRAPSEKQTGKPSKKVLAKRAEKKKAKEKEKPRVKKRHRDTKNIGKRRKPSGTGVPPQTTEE
UniProt P14081, sequence (P14081 whole entry): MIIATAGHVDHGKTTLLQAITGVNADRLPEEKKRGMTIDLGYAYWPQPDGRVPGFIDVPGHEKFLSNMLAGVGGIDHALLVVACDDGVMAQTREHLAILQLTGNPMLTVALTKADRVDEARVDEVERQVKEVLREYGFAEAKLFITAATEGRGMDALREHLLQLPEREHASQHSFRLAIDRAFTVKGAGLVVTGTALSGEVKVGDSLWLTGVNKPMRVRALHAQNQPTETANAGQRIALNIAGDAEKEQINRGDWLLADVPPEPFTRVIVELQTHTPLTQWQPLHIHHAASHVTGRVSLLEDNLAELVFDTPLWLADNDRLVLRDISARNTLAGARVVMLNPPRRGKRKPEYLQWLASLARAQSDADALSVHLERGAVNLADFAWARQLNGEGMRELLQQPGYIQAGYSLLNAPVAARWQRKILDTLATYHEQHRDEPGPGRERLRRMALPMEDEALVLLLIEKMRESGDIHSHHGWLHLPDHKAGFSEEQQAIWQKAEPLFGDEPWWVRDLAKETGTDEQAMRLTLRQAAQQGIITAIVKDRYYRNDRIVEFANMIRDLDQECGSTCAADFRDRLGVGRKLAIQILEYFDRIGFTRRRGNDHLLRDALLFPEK
UniProt P33919, sequence (P33919 whole entry): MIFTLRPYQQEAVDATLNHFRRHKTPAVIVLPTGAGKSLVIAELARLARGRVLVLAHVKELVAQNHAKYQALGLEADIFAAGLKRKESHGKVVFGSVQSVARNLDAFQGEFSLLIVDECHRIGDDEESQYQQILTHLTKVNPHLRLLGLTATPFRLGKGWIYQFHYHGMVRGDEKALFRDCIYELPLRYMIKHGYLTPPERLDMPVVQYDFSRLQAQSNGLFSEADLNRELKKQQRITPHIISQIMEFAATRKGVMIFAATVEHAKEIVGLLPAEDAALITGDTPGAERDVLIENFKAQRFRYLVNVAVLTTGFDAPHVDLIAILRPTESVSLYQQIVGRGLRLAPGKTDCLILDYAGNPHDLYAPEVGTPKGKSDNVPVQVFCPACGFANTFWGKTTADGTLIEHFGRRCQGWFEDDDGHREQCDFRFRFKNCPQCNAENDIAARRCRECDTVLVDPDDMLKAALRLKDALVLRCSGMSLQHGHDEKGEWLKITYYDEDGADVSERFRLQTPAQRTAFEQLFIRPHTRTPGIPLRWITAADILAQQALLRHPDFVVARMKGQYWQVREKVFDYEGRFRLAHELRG
UniProt P13000, sequence (P13000 whole entry): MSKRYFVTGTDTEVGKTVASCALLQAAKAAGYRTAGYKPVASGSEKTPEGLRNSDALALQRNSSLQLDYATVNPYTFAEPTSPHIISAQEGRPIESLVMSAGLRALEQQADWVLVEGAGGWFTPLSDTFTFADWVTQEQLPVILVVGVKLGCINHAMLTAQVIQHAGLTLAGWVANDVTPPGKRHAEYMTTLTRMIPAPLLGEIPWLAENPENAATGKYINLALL
UniProt P05707, sequence (P05707 whole entry): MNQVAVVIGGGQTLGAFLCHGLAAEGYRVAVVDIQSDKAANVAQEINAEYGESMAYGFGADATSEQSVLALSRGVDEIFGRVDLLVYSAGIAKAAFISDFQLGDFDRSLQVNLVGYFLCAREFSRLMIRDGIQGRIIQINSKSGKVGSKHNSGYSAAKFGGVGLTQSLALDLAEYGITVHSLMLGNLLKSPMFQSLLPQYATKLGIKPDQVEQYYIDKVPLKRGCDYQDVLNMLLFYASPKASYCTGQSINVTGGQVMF
UniProt P24193, sequence (P24193 whole entry): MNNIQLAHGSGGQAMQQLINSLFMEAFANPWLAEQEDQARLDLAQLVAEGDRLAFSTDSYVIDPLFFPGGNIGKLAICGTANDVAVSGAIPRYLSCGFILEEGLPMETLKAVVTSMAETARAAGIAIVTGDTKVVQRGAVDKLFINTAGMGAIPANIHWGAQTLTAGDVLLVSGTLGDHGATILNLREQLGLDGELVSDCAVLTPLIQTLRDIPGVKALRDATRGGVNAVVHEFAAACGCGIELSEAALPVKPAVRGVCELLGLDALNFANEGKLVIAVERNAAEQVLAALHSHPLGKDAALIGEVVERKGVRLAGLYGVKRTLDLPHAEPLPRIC
UniProt P11454, sequence (P11454 whole entry): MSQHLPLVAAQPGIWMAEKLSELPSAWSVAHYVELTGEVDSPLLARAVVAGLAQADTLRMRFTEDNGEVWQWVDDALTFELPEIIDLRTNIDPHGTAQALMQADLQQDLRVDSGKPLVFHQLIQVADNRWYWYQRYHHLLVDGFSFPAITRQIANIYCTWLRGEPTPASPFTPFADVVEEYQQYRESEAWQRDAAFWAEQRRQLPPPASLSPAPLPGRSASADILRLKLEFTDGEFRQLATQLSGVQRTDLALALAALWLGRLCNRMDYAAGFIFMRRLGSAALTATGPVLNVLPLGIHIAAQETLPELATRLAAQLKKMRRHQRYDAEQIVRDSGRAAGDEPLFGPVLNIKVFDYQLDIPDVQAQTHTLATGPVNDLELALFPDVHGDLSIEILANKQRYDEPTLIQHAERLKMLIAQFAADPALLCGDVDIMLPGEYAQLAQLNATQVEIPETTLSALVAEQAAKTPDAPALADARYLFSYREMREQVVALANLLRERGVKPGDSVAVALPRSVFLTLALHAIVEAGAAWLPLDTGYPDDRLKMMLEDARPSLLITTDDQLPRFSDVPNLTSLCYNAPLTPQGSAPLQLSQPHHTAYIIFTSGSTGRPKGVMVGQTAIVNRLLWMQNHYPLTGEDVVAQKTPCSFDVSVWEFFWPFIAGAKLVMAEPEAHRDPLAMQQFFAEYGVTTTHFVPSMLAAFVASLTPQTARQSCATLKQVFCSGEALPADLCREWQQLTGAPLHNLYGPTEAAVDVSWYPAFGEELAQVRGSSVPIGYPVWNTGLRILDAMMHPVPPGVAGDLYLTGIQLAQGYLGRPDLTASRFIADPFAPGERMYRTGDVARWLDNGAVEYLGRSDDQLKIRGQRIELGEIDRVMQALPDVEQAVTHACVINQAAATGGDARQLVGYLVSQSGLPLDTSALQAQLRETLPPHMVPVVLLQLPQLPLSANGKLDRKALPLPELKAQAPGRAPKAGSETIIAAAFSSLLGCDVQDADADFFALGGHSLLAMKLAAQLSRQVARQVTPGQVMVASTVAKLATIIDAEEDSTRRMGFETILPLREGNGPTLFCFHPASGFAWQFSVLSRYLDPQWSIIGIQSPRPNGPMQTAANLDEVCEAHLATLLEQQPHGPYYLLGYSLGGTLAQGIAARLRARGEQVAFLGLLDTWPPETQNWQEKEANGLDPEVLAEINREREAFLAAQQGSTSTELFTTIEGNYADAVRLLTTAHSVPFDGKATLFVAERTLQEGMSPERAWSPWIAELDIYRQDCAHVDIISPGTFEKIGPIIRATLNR
UniProt P14375, sequence (P14375 whole entry): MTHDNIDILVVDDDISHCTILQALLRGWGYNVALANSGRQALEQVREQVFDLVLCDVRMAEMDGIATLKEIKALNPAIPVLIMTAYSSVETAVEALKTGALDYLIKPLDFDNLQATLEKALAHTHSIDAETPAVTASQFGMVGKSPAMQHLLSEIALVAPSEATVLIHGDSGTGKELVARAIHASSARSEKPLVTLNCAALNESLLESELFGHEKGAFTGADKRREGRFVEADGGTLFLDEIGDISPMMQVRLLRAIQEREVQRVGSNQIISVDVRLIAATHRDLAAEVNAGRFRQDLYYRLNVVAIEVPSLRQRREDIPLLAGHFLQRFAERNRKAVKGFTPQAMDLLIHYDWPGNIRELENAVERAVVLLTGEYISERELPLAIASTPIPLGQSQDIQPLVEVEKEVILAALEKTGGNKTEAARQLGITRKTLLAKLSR
UniProt P18392, sequence (P18392 whole entry): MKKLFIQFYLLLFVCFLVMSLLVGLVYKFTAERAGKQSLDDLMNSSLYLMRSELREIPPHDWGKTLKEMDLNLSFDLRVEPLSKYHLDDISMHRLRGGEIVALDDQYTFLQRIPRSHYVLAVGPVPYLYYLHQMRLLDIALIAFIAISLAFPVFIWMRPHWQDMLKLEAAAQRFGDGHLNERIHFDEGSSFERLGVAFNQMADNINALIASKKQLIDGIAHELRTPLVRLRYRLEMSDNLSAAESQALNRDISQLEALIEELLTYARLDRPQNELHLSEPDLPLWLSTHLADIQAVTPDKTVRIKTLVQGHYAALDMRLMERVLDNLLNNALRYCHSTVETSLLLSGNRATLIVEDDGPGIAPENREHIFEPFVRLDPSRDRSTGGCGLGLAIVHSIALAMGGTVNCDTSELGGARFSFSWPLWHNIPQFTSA
UniProt P37744, sequence (P37744 whole entry): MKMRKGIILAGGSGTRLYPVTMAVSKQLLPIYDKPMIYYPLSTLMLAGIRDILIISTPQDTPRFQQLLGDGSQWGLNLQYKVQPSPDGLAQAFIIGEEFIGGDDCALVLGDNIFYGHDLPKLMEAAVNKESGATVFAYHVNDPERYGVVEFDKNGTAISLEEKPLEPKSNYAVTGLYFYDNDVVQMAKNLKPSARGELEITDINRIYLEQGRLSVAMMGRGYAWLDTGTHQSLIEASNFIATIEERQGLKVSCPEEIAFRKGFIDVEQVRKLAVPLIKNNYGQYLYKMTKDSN

Nc1ncnc2c1ncn2[C@@H]1O[C@H](COP(=O)(O)OP(=O)(O)OP(=O)(O)O)[C@@H](O)[C@H]1O [adenosine 5'-triphosphate]
Details | pEC50 of peptide local stability change
UniProt P0ACL0 | 4.44
UniProt P0AES0 | 3.95
UniProt P00959 | 2.99
UniProt P04993 | 2.84
UniProt P05707 | 3.86
UniProt P08192 | 2.7
UniProt P08200 | 2.33
UniProt P11454 | 3.15
UniProt P12282 | 3.44
UniProt P13000 | 4.87
UniProt P13458 | 2.9
UniProt P14081 | 3.42
UniProt P14375 | 3.65
UniProt P18392 | 2.88
UniProt P20083 | 3.38
UniProt P21507 | 4.35
UniProt P22188 | 3.89
UniProt P23331 | 3.2
UniProt P24193 | 4.4
UniProt P25741 | 3.2
UniProt P25742 | 2.67
UniProt P30844 | 2.71
UniProt P31548 | 3.79
UniProt P33919 | 4.16
UniProt P36566 | 2.46
UniProt P37624 | 3.2
UniProt P37744 | 3.22
UniProt P39359 | 3.49
UniProt P39410 | 3.92
UniProt P75736 | 2.02
UniProt P75828 | 2.65
